In one series the test system is Vero cells. As to the kind of experiment: Cytotoxicity test (MTT). Format: cell-based. Conditions: Chlorocebus sabaeus.
The test system of series [1] is Mycobacterium tuberculosis H37Rv. As to the kind of experiment: Anti-tuberculosis activity test in vitro (Microplate Alamar Blue Assay, MABA). It is filed as cell-based. Background: Alamar Blue is a resazurin reagent that responds to reducing activity.
For series [2], the system named is mitochondrial protein synthesis. As to the kind of experiment: Activity of inhibiting mitochondrial protein synthesis. It is filed as biochemical. As for the experimental part: The experimental steps were carried out according to the literature (Antimicrobial Agents and Chemotherapy, 2006, 50 (6), 2042-2049).
The mark [3] stands for this setting: M. tuberculosis H37Rv, MABA, 7H9 medium, method says MIC90 was calculated, read-out: MIC.
The mark [4] stands for this setting: Vero cells, MTT, 48 hours of incubation, highest concentration 64 μg/mL, read-out: IC50.
Setting [5] is: mitochondrial protein synthesis inhibition, Table 3.

The values that follow come from US11332477B2, “Nitrogen containing heterocycle substituted benzoxazine oxazolidinone compound and preparation method and use thereof” (INSTITUTE OF MATERIA MEDICA, CHINESE ACADEMY OF MEDICAL …, priority 2017, dated 2022).

In brackets after ≈: the same amount, converted by molar mass. Like-named read-outs stand apart in the source and are kept apart here. Some results are limits rather than exact numbers.

Compound `O=C1O[C@@H](Cn2ccnn2)[C@@H]2COc3cc(N4[C@@H]5CC[C@H]4CSC5)c(F)cc3N12` [Compound 22, (3S,3aS)-3-((1H-1,2,3-Triazol-1-yl)methyl)-7-((1R,5S)-3-thia-8-azabicyclo[3.2.1]octan-8-yl)-8-fluoro-3a,4-dihydro-1H,3H-benzo[b]oxazolo[3,4-d][1,4]oxazin-1-one] came in with a melting point of 225 to 227 °C. Moreover, the IC50 in the series with Vero cells (Vero, 48 h) was over 64 µg/mL.

For `O=C(NC[C@@H]1OC(=O)N2c3cc(F)c(N4[C@@H]5CC[C@H]4CSC5)cc3OC[C@@H]12)c1ccncc1` [Compound 20, N-(((3S,3aS)-7-((1R,5S)-3-thia-8-azabicyclo[3.2.1]octan-8-yl)-8-fluoro-1-oxo-3a,4-dihydro-1H,3H-benzo[b]oxazolo[3,4-d][1,4]oxazin-3-yl)methyl)isonicotinamide], the melting point lay within 149 to 150 °C. The IC50 in the series with Vero cells (Vero, 48 h) is over 64 µg/mL.

The compound `O=C(NC[C@@H]1OC(=O)N2c3cc(F)c(N4[C@@H]5CC[C@H]4CSC5)cc3OC[C@@H]12)C1CCC1` [Compound 17, N-(((3S,3aS)-7-((1R,5S)-3-thia-8-azabicyclo[3.2.1]octan-8-yl)-8-fluoro-1-oxo-3a,4-dihydro-1H,3H-benzo[b]oxazolo[3,4-d][1,4]oxazin-3-yl)methyl)cyclobutanecarboxamide] showed a melting point of 195 to 196 °C. In addition, the MIC in series [1] (H37RV) is 0.974 µg/mL (≈ 2.18 µM). Further, the midpoint of inhibition in the series on Vero cells (Vero, 48 h), the IC50, lay at 34.7 µg/mL (≈ 77.5 µM).

Compound `NC[C@@H]1OC(=O)N2c3cc(F)c(N4[C@@H]5CC[C@H]4CSC5)cc3OC[C@@H]12` [Compound 13, (3S,3aS)-3-(Aminomethyl)-7-((1R,5S)-3-thia-8-azabicyclo[3.2.1]octan-8-yl)-8-fluoro-3a,4-dihydro-1H,3H-benzo[b]oxazolo[3,4-d][1,4]oxazin-1-one] yielded a melting point of 168 to 169 °C. The MIC in series [1] (H37RV) amounted to 0.609 µg/mL (≈ 1.67 µM).

As for `O=C(NC[C@@H]1OC(=O)N2c3cc(F)c(N4CCSCC4)cc3OC[C@@H]12)C(F)F` [Compound 33, 2,2-Difluoro-N-(((3S,3aS)-8-fluoro-1-oxo-7-thiomorpholino-3a,4-dihydro-1H,3H-benzo [b]oxazolo[3,4-d][1,4]oxazin-3-yl)methyl)acetamide], the melting point lay in the range of 200 to 202 °C. Moreover, the MIC in series [1] (setting [3]) was 0.1 µg/mL (≈ 0.24 µM). The IC50 with Vero cells (setting [4]) was 61.6 µg/mL (≈ 148 µM).

`CC(=O)NC[C@@H]1OC(=O)N2c3cc(F)c(N4CCC(F)(F)CC4)cc3OC[C@@H]12` [Compound 32, N-(((3S,3aS)-7-(4,4-Difluoropiperidin-1-yl)-8-fluoro-1-oxo-3a,4-dihydro-1H,3H-benzo[b]oxazolo[3,4-d][1,4]oxazin-3-yl)methyl)acetamide] had a melting point of 230 to 232 °C. Further, the MIC in series [1] (setting [3]) is 0.908 µg/mL (≈ 2.27 µM). Also, the IC50 with Vero cells (setting [4]) is over 64 µg/mL.

With `O=C(NC[C@@H]1OC(=O)N2c3cc(F)c(N4CC5(COC5)C4)cc3OC[C@@H]12)C1CCC1` [Compound 26, N-(((3S,3aS)-8-Fluoro-1-oxo-7-(2-oxa-6-azaspiro[3.3]heptan-6-yl)-3a,4-dihydro-1H,3H-benzo[b]oxazolo[3,4-d][1,4]oxazin-3-yl)methyl)cyclobutanecarboxamide], the melting point was in the range of 118 to 120 °C. Further, the IC50 in the series with Vero cells (setting [4]) was over 64 µg/mL.

Compound `O=C(NC[C@@H]1OC(=O)N2c3cc(F)c(N4C5CCC4CSC5)cc3OC[C@@H]12)c1cnccn1` had a melting point of over 250 °C.

Compound `O=C(NC[C@@H]1OC(=O)N2c3cc(F)c(N4CC5(COC5)C4)cc3OC[C@@H]12)C1CC1` [Compound 25, N-(((3S,3aS)-8-Fluoro-1-oxo-7-(2-oxa-6-azaspiro[3.3]heptan-6-yl)-3a,4-dihydro-1H,3H-benzo[b]oxazolo[3,4-d][1,4]oxazin-3-yl)methyl)cyclopropanecarboxamide] came in with a melting point of 181 to 183 °C. The IC50 with Vero cells (setting [4]) is over 64 µg/mL.

The compound `O=C(NC[C@@H]1OC(=O)N2c3cc(F)c(N4CC[S+]([O-])CC4)cc3OC[C@@H]12)C(F)F` [Compound 34, 2,2-Difluoro-N-(((3S,3aS)-8-fluoro-7-(1-oxidothiomorpholino)-1-oxo-3a,4-dihydro-1H, 3H-benzo[b]oxazolo[3,4-d][1,4]oxazin-3-yl)methyl)acetamide] yielded a melting point of 190 to 192 °C. Also, the MIC in series [1] (setting [3]) was 0.492 µg/mL (≈ 1.14 µM). Moreover, the IC50 in the series on Vero cells (setting [4]) is over 64 µg/mL.

As to `CC(=O)NC[C@H]1CN(c2ccc(N3CCOCC3)c(F)c2)C(=O)O1` [Linezolid, reference compound], the MIC in series [1] (setting [3]) was 0.294 µg/mL (≈ 0.871 µM). Besides, in series [2] (setting [5]), the IC50 was found to be 8.71 µg/mL.

Turning to `CC(=O)NC[C@@H]1OC(=O)N2c3ccc(N4CCOCC4)cc3OC[C@@H]12` [Compound VII, reference compound], the MIC in series [1] (setting [3]) was 1.55 µg/mL (≈ 4.45 µM). In addition, the IC50 in series [2] (setting [5]) was found to be 35.82 µg/mL; in series [2] (read-out: IC50 value of mitochondrial protein synthesis inhibition) it was 35.8 µM.

The compound `COC(=O)NC[C@@H]1OC(=O)N2c3cc(F)c(N4[C@@H]5CC[C@H]4CSC5)cc3OC[C@@H]12` [Compound 18, Methyl (((3S,3aS)-7-((1R,5S)-3-thia-8-azabicyclo[3.2.1]octan-8-yl)-8-fluoro-1-oxo-3a,4-dihydro-1H,3H-benzo[b]oxazolo[3,4-d][1,4]oxazin-3-yl)methyl)carbamate] registered a melting point of 149 to 151 °C. This compound also showed an IC50 in the series with Vero cells (Vero, 48 h) of over 64 µg/mL.

`CC(C)C(=O)NC[C@@H]1OC(=O)N2c3cc(F)c(N4C5CCC4CSC5)cc3OC[C@@H]12` [Compound 15] had a melting point of 164 to 165 °C. Besides, in the series on Vero cells (Vero, 48 h), the IC50 is over 64 µg/mL.

As to `O=C1O[C@@H](CNC2COC2)[C@@H]2COc3cc(N4CCSCC4)c(F)cc3N12` [Compound 36, (3S,3aS)-8-Fluoro-3-((oxetan-3-ylamino)methyl)-7-thiomorpholino-3a,4-dihydro-1H,3H-benzo[b]oxazolo[3,4-d][1,4]oxazin-1-one], the melting point is 162 to 164 °C. The MIC in series [1] (setting [3]) is 0.237 µg/mL (≈ 0.599 µM). In addition, the concentration for half-maximal inhibition (IC50) in the series on Vero cells (setting [4]) was over 64 µg/mL.

In the case of `O=C(NC[C@@H]1OC(=O)N2c3cc(F)c(N4[C@@H]5CC[C@H]4CSC5)cc3OC[C@@H]12)C1CC1` [Compound 16, N-(((3S,3aS)-7-((1R,5S)-3-thia-8-azabicyclo[3.2.1]octan-8-yl)-8-fluoro-1-oxo-3a,4-dihydro-1H,3H-benzo[b]oxazolo[3,4-d][1,4]oxazin-3-yl)methyl)cyclopropanecarboxamide], the melting point lay in the range of 169 to 171 °C. This compound also gave an MIC in series [1] (H37RV) of 0.976 µg/mL (≈ 2.25 µM). The same compound showed an IC50 in the series with Vero cells (Vero, 48 h) of over 64 µg/mL.

`O=C1O[C@@H](CNc2ccon2)[C@@H]2COc3cc(N4[C@@H]5CC[C@H]4CSC5)c(F)cc3N12` [Compound 19, (3S,3aS)-7-((1R,5S)-3-thia-8-azabicyclo[3.2.1]octan-8-yl)-8-fluoro-3-((isoxazol-3-ylamino)methyl)-3a,4-dihydro-1H,3H-benzo[b]oxazolo[3,4-d][1,4]oxazin-1-one] yielded a melting point of 180 to 182 °C. In the series with Vero cells (Vero, 48 h), the IC50 is over 64 µg/mL.

Regarding `CC(=O)NC[C@@H]1OC(=O)N2c3cc(F)c(N4[C@@H]5CC[C@H]4CSC5)cc3OC[C@@H]12` [Compound 14, N-(((3S,3aS)-7-((1R,5S)-3-thia-8-azabicyclo[3.2.1]octan-8-yl)-8-fluoro-1-oxo-3a,4-dihydro-1H,3H-benzo[b]oxazolo[3,4-d][1,4]oxazin-3-yl)methyl)acetamide], the melting point fell in the range of 235 to 236 °C. The same compound gave an MIC in series [1] (H37RV) of 0.918 µg/mL (≈ 2.25 µM). In the series with Vero cells (Vero, 48 h), this compound registered a half-maximal inhibitory concentration (IC50) of 58.5 µg/mL (≈ 144 µM).

With `CNC[C@@H]1OC(=O)N2c3cc(F)c(N4CCSCC4)cc3OC[C@@H]12` [Compound 2, (3S,3aS)-8-Fluoro-3-((methylamino)methyl)-7-thiomorpholino-3a,4-dihydro-1H,3H-benzo[b]oxazolo[3,4-d][1,4]oxazin-1-one], the melting point fell in the range of 155 to 156 °C. Further, the IC50 in the series with Vero cells (setting [4]) stood at 46.5 µg/mL (≈ 132 µM).

Turning to `O=C1O[C@@H](Cn2ccnn2)[C@@H]2COc3cc(N4CC5(COC5)C4)c(F)cc3N12` [Compound 27, (3S,3aS)-3-((1H-1,2,3-Triazol-1-yl)methyl)-8-fluoro-7-(2-oxa-6-azaspiro[3.3]heptan-6-y 1)-3a,4-dihydro-1H,3H-benzo[b]oxazolo[3,4-d][1,4]oxazin-1-one], the melting point was in the range of 219 to 221 °C. The 50% inhibitory concentration (IC50) in the series on Vero cells (setting [4]) was over 64 µg/mL.

On to `CC(=O)NC[C@@H]1OC(=O)N2c3cc(F)c(N4CC5(COC5)C4)cc3OC[C@@H]12` [Compound 24, N-(((3S,3aS)-8-Fluoro-1-oxo-7-(2-oxa-6-azaspiro[3.3]heptan-6-yl)-3a,4-dihydro-1H,3H-benzo[b]oxazolo[3,4-d][1,4]oxazin-3-yl)methyl)acetamide], for which the melting point was 105 to 107 °C. For the same compound, in the series with Vero cells (setting [4]), the IC50 is over 64 µg/mL.

With `CS(=O)(=O)NC[C@@H]1OC(=O)N2c3cc(F)c(N4CCSCC4)cc3OC[C@@H]12` [Compound 3, N-(((3S,3aS)-8-Fluoro-1-oxo-7-thiomorpholino-3a,4-dihydro-1H,3H-benzo[b]oxazolo[3,4-d][1,4]oxazin-3-yl)methyl)methanesulfonamide], the melting point was in the range of 234 to 235 °C. Further, in the series with Vero cells (setting [4]), the IC50 was over 64 µg/mL.

As to `COC(=O)NC[C@H]1OC(=O)N2c3cc(F)c(N4CCSCC4)cc3OC[C@H]12` [Compound 30, Methyl (((3R,3aR)-8-fluoro-1-oxo-7-thiomorpholino-3a,4-dihydro-1H,3H-benzo[b]oxazolo[3,4-d][l, 4]oxazin-3-yl)methyl)carbamate], the melting point is 158 to 160 °C. Moreover, the MIC in series [1] (setting [3]) was 0.208 µg/mL (≈ 0.523 µM). Further, the IC50 in the series on Vero cells (setting [4]) was over 64 µg/mL.

As to `CC(=O)NC[C@H]1CN(c2ccc(N3CCSCC3)c(F)c2)C(=O)O1` [Sutezolid, reference compound], in series [1] (setting [3]), the MIC was 0.078 µg/mL (≈ 0.221 µM). This compound came in with an IC50 in series [2] (setting [5]) of 7.98 µg/mL.

`CC(=O)NC[C@@H]1OC(=O)N2c3cc(F)c(N4CCS(=O)(=O)CC4)cc3OC[C@@H]12` [Compound 35, N-(((3S,3aS)-7-(1,1-dioxidothiomorpholino)-8-fluoro-1-oxo-3a,4-dihydro-1H,3H-benzo [b]oxazolo[3,4-d][1,4]oxazin-3-yl)methyl)acetamide]: the melting point was in the range of 226 to 228 °C. Also, the MIC in series [1] (setting [3]) was 0.48 µg/mL (≈ 1.16 µM). For the same compound, the half-inhibitory concentration (IC50) in the series with Vero cells (setting [4]) is over 64 µg/mL.

The melting point is the temperature, or range, at which the solid turns liquid. What is called IC50 is the concentration needed to halve the response being measured. By MIC is commonly meant the smallest concentration in the dilution series that meets the test's criterion for growth inhibition.
